Source: ChEMBL document CHEMBL5537146, “Novel orally bioavailable piperidine derivatives as extracellular arginase inhibitors developed by a ring expansion” (Eur J Med Chem, 2024)
pIC50: −log10 of the molar value.

Assays:
Arginase-1 [1] = target: T1, Arginase-1 (Homo sapiens, UniProt P05089); test: Inhibition of human recombinant ARG1 expressed in Escherichia coli using L-arginine hydrochloride as substrate assessed as inhibition of urea production incubated for 20 mins by colorimetric analysis
T1 sequence (P05089 whole entry): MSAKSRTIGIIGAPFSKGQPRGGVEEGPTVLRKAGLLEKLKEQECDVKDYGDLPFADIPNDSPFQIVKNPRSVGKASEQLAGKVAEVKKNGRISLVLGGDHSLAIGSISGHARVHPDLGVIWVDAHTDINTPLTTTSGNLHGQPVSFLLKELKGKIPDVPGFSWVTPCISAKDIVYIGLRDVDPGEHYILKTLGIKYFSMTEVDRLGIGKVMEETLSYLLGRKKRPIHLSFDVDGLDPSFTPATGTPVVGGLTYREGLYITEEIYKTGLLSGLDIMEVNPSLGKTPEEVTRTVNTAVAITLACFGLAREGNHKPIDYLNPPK

[2] = Inhibition of mouse intracellular ARG in M2 polarized C57BL/6 mouse BMDM cells incubated for 24 hrs by absorbance based analysis; assay type: cell-based; settings: C57BL/6, BMDM
[3] = AUC (0 to infinity) in Sprague-Dawley rat at 10 mg/kg, po measured for 24 hrs by LC-MS/MS analysis; assay type: ADME, organism-based; settings: in vivo
[4] = Drug metabolism in Sprague-Dawley rat plasma assessed as increase in arginine level by measuring fold change at 10 mg/kg, po measured for 24 hrs by LC-MS/MS analysis; assay type: ADME, organism-based; settings: in vivo
[5] = Volume of distribution at steady state in Sprague-Dawley rat at 3 mg/kg, iv measured over 24 hrs by LC-MS/MS analysis; assay type: ADME, organism-based; settings: in vivo, read-out: Vdss
[6] = Clearance in Sprague-Dawley rat at 3 mg/kg, iv measured over 24 hrs by LC-MS/MS analysis; assay type: ADME, organism-based; settings: in vivo
[7] = Oral bioavailability in Sprague-Dawley rat at 10 mg/kg measured over 24 hrs by LC-MS/MS analysis; assay type: ADME, organism-based; settings: in vivo
[8] = Tmax in Sprague-Dawley rat at 10 mg/kg, po measured over 24 hrs by LC-MS/MS analysis; assay type: ADME, organism-based; settings: in vivo
[9] = Terminal elimination half-life in Sprague-Dawley rat at 3 mg/kg, iv measured over 24 hrs by LC-MS/MS analysis; assay type: ADME, organism-based; settings: in vivo, read-out: beta t1/2 (converted)
Arginase-1 [10] = target: T1, Arginase-1; test: Inhibition of extracellular arginase (unknown origin)
[11] = Toxicity in Sprague-Dawley rat assessed as mortality upto 1 g/Kg, po measured after 7 days; assay type: organism-based; settings: in vivo, 1000 mg/kg, 168 h, time 7 day
[12] = Permeability in human Caco-2 cells; assay type: ADME, cell-based
[13] = target: Voltage-gated inwardly rectifying potassium channel KCNH2 (Homo sapiens, UniProt Q12809); test: Inhibition of hERG; assay type: toxicity
[14] = Drug metabolism in Balb/c mouse plasma assessed as increase in arginine level by measuring fold change at 100 mg/kg, po measured for 24 hrs […] by LC-MS/MS analysis; assay type: ADME, organism-based; settings: in vivo
[15] = Drug metabolism in Balb/c mouse plasma assessed as (3R,5S)-3-amino-5-(2-boronoethyl)piperidine-3-carboxylic acid metabolite formation at 100 mg/kg, po measured for 24 hrs by LC-MS/MS analysis; assay type: ADME, organism-based; settings: in vivo
[16] = Toxicity in Sprague-Dawley rat assessed as change in body weight measured after 7 days; settings: in vivo, 168 h, time 7 day
[17] = Genotoxicity in Salmonella typhimurium TA98 in presence of S9 fraction by Ames test; assay type: toxicity; settings: salmonella enterica subsp. enterica serovar typhimurium
[18] = Oral bioavailability in Balb/c mouse at 100 mg/kg measured for 24 hrs by LC-MS/MS analysis; assay type: ADME, organism-based; settings: in vivo

Sequence of Voltage-gated inwardly rectifying potassium channel KCNH2 (Q12809 whole entry): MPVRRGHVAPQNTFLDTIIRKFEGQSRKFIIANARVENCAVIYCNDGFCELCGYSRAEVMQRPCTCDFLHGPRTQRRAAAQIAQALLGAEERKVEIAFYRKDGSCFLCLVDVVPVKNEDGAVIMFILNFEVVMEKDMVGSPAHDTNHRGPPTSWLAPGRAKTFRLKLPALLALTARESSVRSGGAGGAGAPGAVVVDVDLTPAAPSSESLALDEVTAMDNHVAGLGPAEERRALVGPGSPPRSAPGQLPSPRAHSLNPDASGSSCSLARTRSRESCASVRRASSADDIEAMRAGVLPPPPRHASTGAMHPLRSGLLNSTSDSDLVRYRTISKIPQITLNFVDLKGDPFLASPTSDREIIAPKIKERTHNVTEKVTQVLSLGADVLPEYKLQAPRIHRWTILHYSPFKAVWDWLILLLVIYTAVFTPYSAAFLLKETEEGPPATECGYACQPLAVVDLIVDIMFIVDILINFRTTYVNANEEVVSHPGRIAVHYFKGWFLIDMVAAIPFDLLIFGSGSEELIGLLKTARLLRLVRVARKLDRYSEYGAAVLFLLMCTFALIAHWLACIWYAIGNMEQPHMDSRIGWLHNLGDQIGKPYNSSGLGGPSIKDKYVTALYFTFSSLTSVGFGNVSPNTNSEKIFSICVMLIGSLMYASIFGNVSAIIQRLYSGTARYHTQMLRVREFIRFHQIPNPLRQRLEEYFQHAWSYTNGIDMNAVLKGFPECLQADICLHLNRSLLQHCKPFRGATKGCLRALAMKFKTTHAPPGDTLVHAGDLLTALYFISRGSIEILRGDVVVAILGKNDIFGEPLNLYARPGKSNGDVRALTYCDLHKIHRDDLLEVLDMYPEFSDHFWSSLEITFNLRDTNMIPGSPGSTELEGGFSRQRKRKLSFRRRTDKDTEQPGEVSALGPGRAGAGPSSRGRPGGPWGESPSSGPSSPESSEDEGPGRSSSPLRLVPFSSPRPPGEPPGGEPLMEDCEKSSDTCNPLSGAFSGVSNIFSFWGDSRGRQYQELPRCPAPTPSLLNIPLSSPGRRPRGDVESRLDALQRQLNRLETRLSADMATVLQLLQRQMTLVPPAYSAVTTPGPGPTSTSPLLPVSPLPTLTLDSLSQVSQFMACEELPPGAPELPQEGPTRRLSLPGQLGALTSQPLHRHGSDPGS

| SMILES | pIC50 (Arginase-1 [1]) | pIC50 [2] | also measured |
| --- | --- | --- | --- |
| N[C@@H](Cc1c[nH]cn1)C(=O)N1C[C@@H](CCB(O)O)C[C@](N)(C(=O)O)C1 | 6.68 | < 3.52 |  |
| C[C@H](N)C(=O)N1C[C@@H](CCB(O)O)C[C@](N)(C(=O)O)[C@@H]1C | 6.60 |  | fold change (FC) [4]: 2; Vd [5]: 0.69 L/kg; clearance [6]: 5.87 mL/min/kg; bioavailability [7]: 65.6%; Tmax [8]: 1 h; half-life [9]: 2.66 h |
| CN(C)C[C@@H]1CC[C@@H](CCB(O)O)C[C@]1(N)C(=O)O | 7.70 | 5.96 | pIC50 (Arginase-1 [10]): 7.70 |
| N[C@]1(C(=O)O)C[C@H](CCB(O)O)CN(C(=O)[C@@H]2CCCN2)C1 | 6.46 | < 3.52 |  |
| NCCCC[C@H](N)C(=O)N1C[C@@H](CCB(O)O)C[C@](N)(C(=O)O)C1 | 6.60 | < 3.52 |  |
| N[C@@H](Cc1ccccc1)C(=O)N1C[C@@H](CCB(O)O)C[C@](N)(C(=O)O)C1 | 6.62 | < 3.52 | fold change (FC) [4]: 2; Vd [5]: 0.69 L/kg; clearance [6]: 5.87 mL/min/kg; bioavailability [7]: 18.8%; Tmax [8]: 1 h; half-life [9]: 2.66 h |
| N=C(N)NCCC[C@H](N)C(=O)N1C[C@@H](CCB(O)O)C[C@](N)(C(=O)O)C1 | 6.80 | < 3.52 | Activity [11]: Non-Toxic; fold change (FC) [4]: 2; Vd [5]: 0.69 L/kg; permeability [12]: Impermeable; clearance [6]: 5.87 mL/min/kg; inhibition (INH) [13]: Not Active; fold change (FC) [14]: 3; Drug metabolism [15]: Metabolite_Detected; bioavailability [7]: 18.8%; Activity [16]: Non-Toxic; Tmax [8]: 1 h; half-life [9]: 2.66 h; Activity [17]: Toxic |
| NC(=O)NCCC[C@H](N)C(=O)N1C[C@@H](CCB(O)O)C[C@](N)(C(=O)O)C1 | 6.44 | < 3.52 |  |
| N[C@@H](Cc1ccc(O)cc1)C(=O)N1C[C@@H](CCB(O)O)C[C@](N)(C(=O)O)C1 | 6.55 | < 3.52 |  |
| NC(=O)C[C@H](N)C(=O)N1C[C@@H](CCB(O)O)C[C@](N)(C(=O)O)C1 | 6.44 | < 3.52 |  |
| NC(=O)CC[C@H](N)C(=O)N1C[C@@H](CCB(O)O)C[C@](N)(C(=O)O)C1 | 6.38 | < 3.52 |  |
| Cn1cc(C[C@@H](N)C(=O)N2C[C@@H](CCB(O)O)C[C@](N)(C(=O)O)C2)c2ccccc21 | 6.13 | < 3.52 |  |
| N[C@@H](CCC(=O)O)C(=O)N1C[C@@H](CCB(O)O)C[C@](N)(C(=O)O)C1 | 6.17 | < 3.52 |  |
| N[C@@H](Cc1c[nH]c2ccccc12)C(=O)N1C[C@@H](CCB(O)O)C[C@](N)(C(=O)O)C1 | 6.55 | < 3.52 |  |
| N[C@@]1(C(=O)O)CNC[C@@H](CCB(O)O)C1 | 6.08 |  |  |
| N[C@@H](CC(=O)O)C(=O)N1C[C@@H](CCB(O)O)C[C@](N)(C(=O)O)C1 | 6.19 | < 3.52 |  |
| CSCC[C@H](N)C(=O)N1C[C@@H](CCB(O)O)C[C@](N)(C(=O)O)C1 | 6.40 | < 3.52 |  |
| N[C@@]1(C(=O)O)CCC[C@@H](CCB(O)O)C1 | 5.92 |  |  |
| NCCC[C@H](N)C(=O)N1C[C@@H](CCB(O)O)C[C@](N)(C(=O)O)C1 | 6.51 | < 3.52 |  |
| COC(=O)[C@@]1(N)C[C@H](CCB(O)O)CN(C(=O)[C@H](C)N)C1 | < 5.00 |  |  |
| C[C@H](N)C(=O)N1C[C@H](CCCB(O)O)[C@](N)(C(=O)O)C1 |  | 4.25 |  |
| C[C@@H]1N(C(=O)[C@@H](N)CCCNC(=N)N)C[C@@H](CCB(O)O)C[C@]1(N)C(=O)O | 6.40 |  |  |

Continued, in another order:

| pIC50 (Arginase-1 [1]) | pIC50 [2] | SMILES | also measured |
| --- | --- | --- | --- |
| 6.60 | < 3.52 | NCC(=O)N1C[C@@H](CCB(O)O)C[C@](N)(C(=O)O)C1 | AUC(0-inf) [3]: 2680 ng·h/mL; fold change (FC) [4]: 2; Vd [5]: 0.69 L/kg; clearance [6]: 5.87 mL/min/kg; bioavailability [7]: 18.8%; Tmax [8]: 1 h; half-life [9]: 2.66 h |
| 6.12 | < 3.52 | N[C@@H](CS)C(=O)N1C[C@@H](CCB(O)O)C[C@](N)(C(=O)O)C1 |  |
| < 5.00 |  | C[C@H](N)C(=O)N1C[C@@H](CCB(O)O)C[C@@](N)(C(=O)O)C1 |  |
| 6.57 | < 3.52 | C[C@H](N)C(=O)N1C[C@@H](CCB(O)O)C[C@](N)(C(=O)O)C1 | fold change (FC) [4]: 2; Vd [5]: 0.69 L/kg; clearance [6]: 5.87 mL/min/kg; fold change (FC) [14]: 3; Drug metabolism [15]: Metabolite_Detected; bioavailability [18]: 58%; bioavailability [7]: 18.8%; Tmax [8]: 1 h; half-life [9]: 2.66 h |
| < 5.00 |  | C[C@H](N)C(=O)N1C[C@H](CCB(O)O)C[C@@](N)(C(=O)O)C1 |  |
| 6.12 | < 3.52 | CC[C@H](C)[C@H](N)C(=O)N1C[C@@H](CCB(O)O)C[C@](N)(C(=O)O)C1 |  |
| < 5.00 |  | C[C@H](N)C(=O)N1C[C@H](CCB(O)O)C[C@](N)(C(=O)O)C1 |  |
| 6.47 | < 3.52 | CCC[C@H](N)C(=O)N1C[C@@H](CCB(O)O)C[C@](N)(C(=O)O)C1 |  |
| 6.55 | < 3.52 | N[C@@H](CO)C(=O)N1C[C@@H](CCB(O)O)C[C@](N)(C(=O)O)C1 |  |
| 6.38 | < 3.52 | CNCC(=O)N1C[C@@H](CCB(O)O)C[C@](N)(C(=O)O)C1 |  |
| 5.49 | < 3.52 | C[C@@H](N)C(=O)N1C[C@@H](CCB(O)O)C[C@](N)(C(=O)O)C1 |  |
| 6.42 | < 3.52 | C[C@@H](O)[C@H](N)C(=O)N1C[C@@H](CCB(O)O)C[C@](N)(C(=O)O)C1 |  |
| 6.44 | < 3.52 | CC(C)[C@H](N)C(=O)N1C[C@@H](CCB(O)O)C[C@](N)(C(=O)O)C1 |  |
| 6.21 | < 3.52 | CC(C)C[C@H](N)C(=O)N1C[C@@H](CCB(O)O)C[C@](N)(C(=O)O)C1 |  |
